The target in series [1] is T1, human c-Mpl-introduced Ba/F3 cell (Homo sapiens, UniProt P40238).
T1 construct: expressed in transfected cells
T1 sequence (P40238 26-635): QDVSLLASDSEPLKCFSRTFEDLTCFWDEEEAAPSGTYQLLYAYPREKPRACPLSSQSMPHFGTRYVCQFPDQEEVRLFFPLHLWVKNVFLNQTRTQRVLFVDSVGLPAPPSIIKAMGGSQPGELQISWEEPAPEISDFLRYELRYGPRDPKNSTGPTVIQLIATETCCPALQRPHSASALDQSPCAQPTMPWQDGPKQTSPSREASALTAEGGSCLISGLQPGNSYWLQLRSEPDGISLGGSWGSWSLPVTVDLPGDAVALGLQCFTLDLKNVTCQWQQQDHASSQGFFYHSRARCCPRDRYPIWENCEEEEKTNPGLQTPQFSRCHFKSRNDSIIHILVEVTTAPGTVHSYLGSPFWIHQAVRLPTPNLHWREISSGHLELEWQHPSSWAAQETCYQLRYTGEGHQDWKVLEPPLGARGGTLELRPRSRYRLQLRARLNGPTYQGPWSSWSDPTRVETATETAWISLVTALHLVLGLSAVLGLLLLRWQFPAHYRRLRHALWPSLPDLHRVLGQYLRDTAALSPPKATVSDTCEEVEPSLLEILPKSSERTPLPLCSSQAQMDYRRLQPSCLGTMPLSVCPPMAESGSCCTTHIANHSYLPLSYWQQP
Description: Test Example 2: human c-Mpl-introduced Ba/F3 cell proliferative activity. As to conditions: concentration exhibiting 30% proliferation; 100% = positive control (Example 315 of Patent Document 1) at 1 μM. Format: cell-based. The protocol: Test Example 2: Evaluation of Human c-Mpl-Introduced Ba/F3 Cell Proliferative Activity
The human c-Mpl-introduced Ba/F3 cell proliferation action was measured by the following method.
As a positive control, 1-(5-{[4-(4-chlorothiophen-2-yl)-5-{[(2R)-2-methylpyrrolidin-1-yl]methyl}-1,3-thiazol-2-yl]carbamoyl}-3-fluoropyridin-2-yl)piperidine-4-carboxylic acid hydrochloride disclosed as Example 315 in Patent Document 1, represented by the formula (A1) above, was used. Further, it is known that the compound has a good human c-Mpl-introduced Ba/F3 cell proliferative activity as disclosed in Table 1 in Patent Document 1.
a) Construction of Vector Expressing Human c-Mpl Receptor
A human c-Mpl receptor gene (GenBank Accession No.: M90102.1) was transfected into an expression vector pEF-BOS (Nucleic Acids Research, 18: pp 5322 (1990)).
b) Construction of Cell Stably Expressing Human c-Mpl Receptor
A vector expressing a human c-Mpl receptor was introduced into a Ba/F3 cell (RIKEN BRC: RCB0805). For the introduction, an electroporation method was used. pEF-BOS-c-mpl (10 μg), pSV2bsr (1 μg, Kaken Pharmaceutical Co., Ltd.) and 1×10^7 of Ba/F3 cells were put into cuvettes with a gap width of 0.4 cm and electroporated under a condition of 1.5 kV (25 μF) in a Gene Pulser (registered trademark) (BioRad). The cells were incubated in an RPMI-1640 medium supplemented with a 0.5% WEHI conditioned medium (BD Biosciences) and 10% fetal bovine serum for 3 days, and thereafter, and the cells were incubated for 30 days in an RPMI-1640 medium, to which 10 μg/mL blasticidin had been further added, thereby acquiring a drug-resistant clone.
c) Measurement of Cell Proliferative Activity
The cells obtained in b) above were dispensed into an RPMI-1640 medium supplemented with a 0.5% WEHI conditioned medium and 10% fetal bovine serum, and used. The day before the experiment, the test substances (final concentration of 100 nM to 10 μM) which had been dissolved in a medium for assay (an RPMI-1640 medium supplemented with 10% fetal bovine serum) were added to a 384-well plate (Model No. 781185, Greiner bio-one). The cells after the medium had been replaced with the medium for assay were dispensed to a 384-well plate to which the test substance had been added, to 1×10^4 cells/well, and incubated overnight at 37° C. and 5% CO2. On the experiment day, a solution of a Cell counting kit (Dojindo Laboratories) was added to each well of the 384-well plate, and the cells were incubated for about 5 hours at 37° C. and 5% CO2. Thereafter, the absorbance (an absorbance wavelength of 450 nm) of each well was measured using Safire^2 (registered trademark) (TECAN), and used as an index for the number of cells. Further, as a negative control, a well to which the test substances had not been added was prepared.
By taking the absorbance of the well to which the test substance had been not added as 0% and taking the absorbance in a case where the positive control had been added to a final concentration of 1 μM as 100%, a cell proliferation rate (%) was calculated from the absorbance of the well to which the test substance had been added.

For the next series, the system named is rat isolated bladder. Put plainly: Test Example 3: effect on electrical field stimulation-induced contraction in rat isolated bladder. As to conditions: 10 μM test substance; AUC of contraction, value before treatment = 100%; SD female rat bladder. The method, then: Test Example 3: Effect on Electrical Field Stimulation-Induced Contraction in Rat Isolated Bladder
As an effect on the nerve stimulation-dependent bladder contraction in in vitro, the effect of the Example compounds of the present invention in the electrical field stimulation-induced contraction of the rat isolated bladder was measured by the following method. That is, a bladder specimen having a width of about 2 mm and a length of about 10 mm in the longitudinal direction from the bladder isolated from a Sprague-Dawley (SD) female rat (Japan SLC, Inc.) was prepared. The prepared bladder specimen was suspended in an organ bath filled with 10 mL of a Krebs-Henseleite solution. The Krebs-Henseleite solution was aerated at 95% 02 and 5% CO2, and kept at 37° C. After carrying out stabilization at an initial tension of 1 g, the contraction was caused twice with 60 mM KCl. After stabilization of the specimen with a Krebs-Henseleite solution, the contraction was caused by carrying out electrical field stimulation at 20 V with an electrical stimulation device (Nihon Kohden) (a stimulation frequency of 8 Hz, a pulse width of 0.3 msec, and a stimulation time of 10 seconds). By repeating the transmural electrical stimulation at an interval of 2 minutes, a voltage was adjusted to obtain a contraction height of approximately 50% of the contractile response at 20 V. After the contraction by electrical field stimulation had been stabilized, 10 μL of the test substances dissolved in 100% dimethyl sulfoxide in advance (final concentrations of 3 μM, 10 μM, and 30 μM) was added thereto. The test substances were cumulatively administered at the following concentrations after the low-concentration contractile response had been stabilized. The response was taken into a personal computer through a PowerLab (registered trademark) (AD Instruments, Inc.), and analyzed by LabChart (registered trademark) (AD Instruments, Inc.). When the area under the response (area under curve, AUC) in each contraction response was calculated and the value before treatment with the test substance was taken as 100%, the enhancement rate (% of pre) of the isolated bladder contractions after treatment with the test substance was calculated.

For series [2], the target named is human muscarinic M3 receptor (Homo sapiens, UniProt P20309).
human muscarinic M3 receptor, sequence (P20309 whole entry): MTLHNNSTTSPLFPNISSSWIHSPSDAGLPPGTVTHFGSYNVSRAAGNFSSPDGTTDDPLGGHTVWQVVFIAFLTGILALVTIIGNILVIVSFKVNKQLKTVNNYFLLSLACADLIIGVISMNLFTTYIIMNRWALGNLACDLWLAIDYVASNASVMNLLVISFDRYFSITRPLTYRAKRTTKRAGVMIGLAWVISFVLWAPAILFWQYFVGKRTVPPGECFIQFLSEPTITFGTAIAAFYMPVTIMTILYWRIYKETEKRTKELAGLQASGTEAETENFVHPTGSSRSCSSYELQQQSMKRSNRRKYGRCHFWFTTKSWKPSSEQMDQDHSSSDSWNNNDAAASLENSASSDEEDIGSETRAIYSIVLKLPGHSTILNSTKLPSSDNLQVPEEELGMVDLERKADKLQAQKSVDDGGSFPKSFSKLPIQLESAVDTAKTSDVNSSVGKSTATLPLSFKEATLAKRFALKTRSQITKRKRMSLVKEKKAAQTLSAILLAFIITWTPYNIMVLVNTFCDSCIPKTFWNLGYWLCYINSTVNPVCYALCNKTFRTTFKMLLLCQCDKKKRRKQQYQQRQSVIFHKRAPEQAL
Description: Test Example 1: Evaluation of Muscarinic M3 Receptor Positive Allosteric Modulator Activity
a) Construction of Vector Expressing Human Muscarinic M3 Receptor
A human muscarinic M3 receptor gene (GenBank Accession No.: NM_000740.2) was introduced into an expression vector pcDNA3.1™ (Life Technologies).
b) Construction of Cells Stably Expressing Human Muscarinic M3 Receptor
A vector expressing a human muscarinic M3 receptor was introduced into a CHO—K1 cell (ATCC No.: CCL-61). The introduction was carried out according to the attached instructions, using a transfection reagent, Lipofectoamine (registered trademark) 2000 Reagent (Life Technologies). The cells were incubated in an alpha Modified Eagle Minimum Essential Medium (α-MEM) including 2 mM glutamine, 10% fetal bovine serum, and 2.0 mg/mL Geneticin (registered trademark) (Life Technologies) for 4 weeks to acquire a drug-resistant clone.
c) Measurement of Intracellular Ca^2+ Concentration
The cells obtained in b) above were suspended in an α-MEM including 2 mM glutamine, 10% fetal bovine serum, and 0.2 mg/mL Geneticin (registered trademark) to the amount from 1.2 to 1.5×10^4 cells/well the day before the experiment, dispensed into a 384-well plate (Model No. 355962, BD Biosciences), and incubated overnight at 37° C. and 5% CO2. The medium was replaced with a loading buffer (an assay buffer (Hank's balanced salt solution (HBSS), 1 g/L BSA, 20 mM HEPES (pH 7.5), and 2.5 mM probenecid), including 3.1 μM Fluo 4-AM (Dojindo Laboratories) and incubated for about 2 hours at room temperature. Thereafter, the cells were washed with a plate washer ELx405™ (BIO-TEK Instrument, Inc.) set with the assay buffer, and set in an intracellular Ca^2+ concentration measuring system (FLIPR^tetra (registered trademark), Molecular Device Co.). The test substances (final concentration of 1 μM or 10 μM) and carbachol (Sigma, final concentration of 0.0024 nM to 10 μM) which had each been dissolved in the assay buffer in advance were set in a FLIPR^tetra (registered trademark). The test substances were added to the cells in the device and after about 5 minutes, carbachol was added to the cells. An increase rate of the intracellular Ca^2+ concentration by carbachol was measured (excitement wavelength of 470 nm to 495 nm and a fluorescence wavelength of 515 nm to 575 nm).
For the muscarinic M3 receptor-positive allosteric modulator activity, a shift toward a lower concentration side of a carbachol concentration-response curve by the test substance was used as an index. […] For example, when the EC50 value of carbachol in the absence of the test substance was 0.1 μM and the EC50 value of carbachol in the presence of the test substance was 0.01 μM, the value of the muscarinic M3 receptor-positive allosteric modulator activity becomes 10, showing that the test substance causes a 10-fold shift in the EC50 value toward to the low concentration side.

Structures are written as SMILES. Where a name gives a salt, the structure may show the parent alone.

Regarding `C[C@@H]1CCCN1Cc1sc(NC(=O)c2cnc(N3CCN(CCC(=O)O)C[C@H]3C)cn2)nc1-c1cc(C(F)(F)F)cs1` [Example 3, 3-[(3R)-3-methyl-4-{5-[(5-{[(2R)-2-methylpyrrolidin-1-yl]methyl}-4-[4-(trifluoromethyl)thiophen-2-yl]-1,3-thiazol-2-yl)carbamoyl]pyrazin-2-yl}piperazin-1-yl]propanoic acid dihydrochloride], in series [1], the “human c-Mpl-introduced Ba/F3 cell proliferative activity EC30” value came to 0.78 µM. In the series with rat isolated bladder, the “Enhancement rate (% of pre) of isolated bladder contractions” value is recorded as 152 % of pre. Besides, in series [2], the “muscarinic M3 receptor-positive allosteric modulator activity, 1 μM (-fold shift)” value was 101 -fold shift and the “muscarinic M3 receptor-positive allosteric modulator activity, 10 μM (-fold shift)” value was 253 -fold shift.
Taken in the same sequence, the figures for `COc1ccc(-c2nc(NC(=O)c3cnc(N4CCN(CCC(=O)O)[C@@H](C)C4)cn3)sc2CN2CCC[C@H]2C)cc1C(F)(F)F` [Example 10] were over 10 µM, 161 % of pre, 21 -fold shift and 87 -fold shift.
Taken in the same sequence, the figures for `C[C@@H]1CCCN1Cc1sc(NC(=O)c2cnc(N3CCN(CCC(=O)O)CC3)cn2)nc1-c1cc(Cl)cc(C(F)(F)F)c1` [Example 11] were over 10 µM, 123 % of pre, 33 -fold shift and 226 -fold shift.
Take `C[C@@H]1CCCN1Cc1sc(NC(=O)c2cnc(N3CCN(CC(=O)O)CC3)cn2)nc1-c1cc(Cl)cc(C(F)(F)F)c1` [Example 13]: in series [1], the “human c-Mpl-introduced Ba/F3 cell proliferative activity EC30” value is over 10 µM. Besides, the “Enhancement rate (% of pre) of isolated bladder contractions” value in the series with rat isolated bladder is listed as 126 % of pre. In series [2], the “muscarinic M3 receptor-positive allosteric modulator activity, 1 μM (-fold shift)” value was 43 -fold shift and the “muscarinic M3 receptor-positive allosteric modulator activity, 10 μM (-fold shift)” value is on record as 326 -fold shift.
Taken in the same sequence, the figures for `C[C@@H]1CCCN1Cc1sc(NC(=O)c2cnc(N3CCN(CCC(=O)O)CC3)cn2)nc1-c1ccc(Cl)c(C(F)(F)F)c1` [Example 15] were over 10 µM, 124 % of pre, 31 -fold shift and 159 -fold shift.
The corresponding values for `C[C@@H]1CCCN1Cc1sc(NC(=O)c2cnc(N3CCN(CCCC(=O)O)CC3)cn2)nc1-c1cc(F)cc(C(F)(F)F)c1` [Example 21] are over 10 µM, 141 % of pre, 25 -fold shift and 149 -fold shift.
For `CC[C@@H]1CCCN1Cc1sc(NC(=O)c2cnc(N3CCN(CCC(=O)O)C[C@@H]3C)cn2)nc1-c1cc(Cl)cs1` [Example 28], the “human c-Mpl-introduced Ba/F3 cell proliferative activity EC30” value in series [1] was 5.3 µM. In the series with rat isolated bladder, the “Enhancement rate (% of pre) of isolated bladder contractions” value is given as 123 % of pre. In series [2], the “muscarinic M3 receptor-positive allosteric modulator activity, 1 μM (-fold shift)” value was 36 -fold shift and the “muscarinic M3 receptor-positive allosteric modulator activity, 10 μM (-fold shift)” value was 108 -fold shift.
For the molecule `C[C@@H]1CCCN1Cc1sc(NC(=O)c2cnc(N3CCN(CCC(=O)[O-])CC3)cn2)nc1-c1cc(C#N)cc(C(F)(F)F)c1.[Na+]` [Example 34], the “human c-Mpl-introduced Ba/F3 cell proliferative activity EC30” value in series [1] was over 10 µM. Further, in the series with rat isolated bladder, the “Enhancement rate (% of pre) of isolated bladder contractions” value is 137 % of pre.
Consider `CC[C@@H]1CCCN1Cc1sc(NC(=O)c2cnc(N3CCN(CCC(=O)O)CC3)cn2)nc1-c1ccc(OC)c(C(F)(F)F)c1` [Example 42], for which the “human c-Mpl-introduced Ba/F3 cell proliferative activity EC30” value in series [1] was over 10 µM. In the series on rat isolated bladder, the “Enhancement rate (% of pre) of isolated bladder contractions” value is on record as 158 % of pre. Also, in series [2], the “muscarinic M3 receptor-positive allosteric modulator activity, 1 μM (-fold shift)” value is 39 -fold shift and the “muscarinic M3 receptor-positive allosteric modulator activity, 10 μM (-fold shift)” value is on record as 141 -fold shift.
On to `COc1c(Cl)cc(-c2nc(NC(=O)c3cnc(N4CCN(CCC(=O)O)CC4)cn3)sc2CN2CCC[C@H]2C)cc1Cl` [Example 43], for which, in series [1], the “human c-Mpl-introduced Ba/F3 cell proliferative activity EC30” value is over 10 µM. In the series with rat isolated bladder, the “Enhancement rate (% of pre) of isolated bladder contractions” value is 179 % of pre. Further, in series [2], the “muscarinic M3 receptor-positive allosteric modulator activity, 1 μM (-fold shift)” value is listed as 76 -fold shift and the “muscarinic M3 receptor-positive allosteric modulator activity, 10 μM (-fold shift)” value was 224 -fold shift.
The corresponding values for `Cc1cc(OC(F)(F)F)cc(-c2nc(NC(=O)c3cnc(N4CCN(CCC(=O)O)CC4)cn3)sc2CN2CCC[C@H]2C)c1` [Example 46] are over 10 µM, 132 % of pre, 29 -fold shift and 199 -fold shift.
For the molecule `CCC[C@@H]1CCCN1Cc1sc(NC(=O)c2cnc(N3CCN(CCC(=O)[O-])CC3)cn2)nc1-c1cccc(C(F)(F)F)c1.[Na+]` [Example 124], the “human c-Mpl-introduced Ba/F3 cell proliferative activity EC30” value in series [1] was over 10 µM. Moreover, the “Enhancement rate (% of pre) of isolated bladder contractions” value in the series on rat isolated bladder is 132 % of pre.
